In brackets after ≈: the same amount, converted by molar mass. Like-named read-outs stand apart in the source and are kept apart here. Where a SMILES comes first, the peptide text is derived from it. [ ]: non-standard residue; d: D form. Nspe = C[C@H](NCC(=O)O)c1ccccc1; NHexGly = CCCCCCNCC(=O)O; Nlys = NCCCCNCC(=O)O
Columns and labels:
[1] = test system: M. bovis BCG; conditions: broth microdilution, 10^6 CFU/mL, 7 days, 37°C, OD595 and visual
[2] = test system: M. tuberculosis CSU87; conditions: 7 days, CFU enumeration, three independent experiments
[3] = test system: MDR clinical isolate M. tuberculosis CSU87; conditions: broth microdilution, 10^6 CFU/mL, 7 days, 37°C, OD595 and visual

Compound: CCCCCCNCC(=O)N(CC(=O)N(CCCCN)CC(N)=O)[C@@H](C)c1ccccc1 [BM 1]
- MIC BCG [1]: 16 to 32 µg/mL

Compound: CCCCCCNCC(=O)N(CC(=O)N(CCCCN)CC(=O)N(CCCCCC)CC(=O)N(CC(=O)N(CCCCN)CC(N)=O)[C@@H](C)c1ccccc1)[C@@H](C)c1ccccc1 [BM 2] (H-[NHexGly][Nspe][Nlys][NHexGly][Nspe][Nlys]-NH2)
- killing of CSU87 ([2]; 2 × MIC (8 mg/L)): > 99%
- killing of CSU87 ([2]; 4 × MIC (16 mg/L)): 99.9%
- MIC CSU87 [3]: 4 µg/mL (≈ 4.55 µM)
- MIC BCG [1]: 2 to 4 µg/mL

Compound: CCCCCCNCC(=O)N(CC(=O)N(CCCCN)CC(=O)N(CCCCCC)CC(=O)N(CC(=O)N(CCCCN)CC(=O)N(CCCCCC)CC(=O)N(CC(=O)N(CCCCN)CC(N)=O)[C@@H](C)c1ccccc1)[C@@H](C)c1ccccc1)[C@@H](C)c1ccccc1 [BM 3] (H-[NHexGly][Nspe][Nlys][NHexGly][Nspe][Nlys][NHexGly][Nspe][Nlys]-NH2)
- MIC CSU87 [3]: 16 µg/mL (≈ 12.2 µM)
- MIC BCG [1]: 4 to 8 µg/mL
